The values below come from patent US20080221074A1, “Drug Screen and Treatment Method” (priority 2006, published 2008).

The test system of experiment [1] is carrageenan-λ induced pleurisy. Nature of the experiment: carrageenan-λ induced lung (pleural cavity) inflammation. The experiment is classed as in vivo, CD1 male mice. Particulars: oral gavage; 1 mg and 0.1 mg (17α-ethynyl triol), 40 mg/kg (17β-amino compound).
In another experiment the test system is NF-κB. Nature of the experiment: kinetic analysis of NF-kB inhibition in vivo after LPS. Details: species or system mice. How it is done:
Kinetic analysis of NF-kB inhibition in vivo. […] The drug was injected 24 hours before intraperitoneal injection of bacterial LPS (about an LD50/24). The study used two groups of 12 animals, vehicle control or drug administered 24 hours before LPS challenge. Spleens were harvested from 3 animals from both groups just before LPS challenge and at 1.5, 2.0 and 2.5 hours after administration of LPS.
Maximum NF-κB activation after LPS administration occurred at 1.5 hours in the vehicle controls, which was 4-fold increased over the pre-LPS level of activated NF-κB. The values for the vehicle control and drug treated animals are relative optical density units from ELISA measurement of NF-κB in nuclei from spleen cells.

The subject of experiment [2] is glucose intolerance in DIO mice. Nature of the experiment: diet induced obesity (DIO) mouse hyperglycemia treatment. The experiment is classed as in vivo. Conditions: 20, 40 or 80 mg/kg twice a day up to 28 days. The text has this: Diet induced obesity (DIO) mouse hyperglycemia treatment. The effect of a drug to enhance peripheral sensitivity to insulin can be studied in a mouse model in which a state of insulin resistance is attained by feeding the animals a fat-enriched diet (60% of total caloric intake) for at least 6 weeks. This model has been described, e.g., J. N. Thupari et al., Proc. Natl. Acad. Sci. USA, 99(14):9498-9502, 2002, H. Xu et al., J. Clin. Invest., 112:1821-1830, 2003, H. Takahashi et al., J. Biol. Chem., 278(47):46654-46660, 2003.
For these studies, animals of approximately […] of age were divided into groups of 10 animals each and then treated with a vehicle control (no drug) or 17α-ethynylandrost-5-ene-3β,7β,17β-triol by oral gavage. The 17α-ethynylandrost-5-ene-3β,7β,17β-triol was administered at 20 mg/kg, 40 mg/kg or 80 mg/kg twice a day for up to 28 days. At day 14 and day 28 during the dosing period an OGTT was performed.

The subject of experiment [3] is human MG-63 osteosarcoma cell line. As to the kind of experiment: reversal of dexamethasone effects in MG-63 osteoblasts. The class given is cell-based. Particulars: 30 nM dexamethasone; compound concentration stated with each value (17α-ethynyl triol: 1 nM).

Turning to `C#C[C@]1(O)CC[C@H]2[C@@H]3[C@@H](O)C=C4C[C@@H](O)CC[C@]4(C)[C@H]3CC[C@@]21C` [17α-ethynylandrost-5-ene-3β,7β,17β-triol], the “anti-inflammation activity compared to vehicle controls” value in experiment [1] is recorded as “statistically significant anti-inflammation activity”. Also, the “activated NF-κB in spleen cell nuclei (ELISA)” value is given as 22 relative optical density units in the experiment with NF-κB (0 hours (before LPS), about 40 mg/kg i.p. 24 h before LPS); 2 relative optical density units in the experiment on NF-κB (1.5 hours after LPS); 7 relative optical density units in the experiment on NF-κB (2.0 hours after LPS); 9 relative optical density units in the experiment with NF-κB (2.5 hours after LPS). In experiment [2], the “glucose intolerance (OGTT glycemic excursion) vs vehicle” value is recorded as “notably reduced glucose intolerance”. Further, in experiment [3], the “reversal of the decrease in osteoprotegerin synthesis” value is on record as “completely reversed the decrease in osteoprotegerin synthesis”.
